Results from patent US20150352114A1, “MITOTIC KINESIN Eg5 INHIBITING ANTICANCER AGENTS” (THE CLEVELAND CLINIC FOUNDATION, priority 2014, published 2015).

Experiments:
GFP-positive tumor cells = assay: Brain slice culture time-lapse cell migration, PDGF-IRES-GFP retrovirus glioma model; format: cell-based, rat; details: 200 nM
Experimental: The PDGF-IRES-GFP retrovirus was produced according to well known methods previously described. P3 neonatal Sprague-Dawley rats were anesthetized using hypothermia. Briefly, each pup was carefully wrapped in several layers of gauze and then covered with ice. After 12 minutes, the rat pup's head was placed in a DKI 963 Stereotaxic Alignment Instrument (David Kopf Instruments, Tujunga, Calif.). The bregma was identified and using a sterile 18 gauge needle a small hole was poked into the skull that was 1 mm rostral and 2 mm to the right of the bregma. A 27-gauge Hamilton microsyringe (Reno, Nev.) was then inserted to a depth of 1.5 mm, and 2 ul of virus was injected at a rate of 0.2 ul/min.
At days P8, P9, and P10, PDGF-IRES-GFP injected rat pups were anesthetized with Ketamine/Xylazine cocktail and decapitated. Brains were isolated and 300-um coronal sections were taken in the vicinity of the injection site using a McIlwain tissue chopper. The slices were transferred onto a porous 0.4-um culture plate insert (Millipore, Billerica, Mass.) and then placed into Glass Bottom 6 well plates (P06G-0-20-F, MatTek Corp, Ashland, Mass.) containing slice culture media (MEM, 2 mM L-glutamine, […], 10% Glucose, Its (Sigma, 12521) and Anti-Anti (Gibco, 15240-062)). Microglial and perivascular cells of the brain sections were stained with Isolectin GS-IB4, Alexa fluor 594 conjugate (Invitrogen) for 30 minutes at 37° C., washed three times with PBS and returned to a humidified atmosphere at 5% (CO2). Images of the brain slices for time-lapse microscopy were acquired with a Perkin Elmer UltraView Spinning Disk microscope on a Leica DMI 6000 with a 10× Plan Apo 0.4 NA objective lens. During imaging, the brain slices were placed in a stage mounted 37° C. incubator where 60% humidity and 5% CO2 was maintained. The emission range for 488 and 561 is […] and 580-650, respectively and acquisition and analysis were performed using Velocity software. The migratory path of the individual cells was then tracked every 7 minutes by marking the position of the cell body at consecutive time points.
Fluorescence, time-lapse image stacks consisting of ˜150 frames (7 minute intervals) were imported into Image-Pro Plus (v7.0, Media Cybernetics, Silver Spring, Md.). Gliomal cell tracking for each treatment group (55 cells/group) was performed in a semi-automated fashion using a combination of Fourier correlation and user-guided input. Cells selected for tracking were chosen randomly from the periphery of the tumor mass in each image stack. X and Y coordinates from each cell track were exported to Excel and translated such that each cell's track originated from a common origin (0,0). […] Mean-squared displacement for tracked cells in each group was analyzed using a persistent random-walk model (1,2). Speed (um/s) and persistence (min) were extracted using a non-linear least-squared regression to the model equation for each track and averaged for each treatment group.

08-387 GSCs = assay: Cytoskeleton Phospho Antibody Array; format: cell-based, human; details: 200 nM; 7 hours
Experimental: 08-387 GSCs were enriched in G1 as described. Cells were then exposed to vehicle or ispinesib (200 nM) for 7 hours. Following treatment, cells were pelleted and snap frozen in liquid nitrogen before shipping to Full Moon Biosystems for processing to probe a Cytoskeleton Phospho Antibody Array containing 141 highly specific cytoskeleton related antibodies (Sunnyvale, Calif.).

[1] = Persistent Random Walk model fit

## Cc1ccc(C(=O)N(CCCN)[C@@H](c2nc3cc(Cl)ccc3c(=O)n2Cc2ccccc2)C(C)C)cc1 [ispinesib, N-(3-amino-propyl)-n-[R-1-(3-benzyl-7-choloro-4-oxo-3,4-dihydroquinazolin-2-yl)-2-methyl-propyl]-4-methyl-benzamide methanesulfonate]
GFP-positive tumor cells
  tumor dispersion (Wind Rose plots, MSD): clear reduction in tumor dispersion
GFP-positive tumor cells; versus control
  reduction in mean squared displacement: approximately four-fold
  reduction of cell velocity: approximately two-fold
GFP-positive tumor cells; [1]
  cell velocity: 11.3±0.2 μm/hr
  persistence time: 2.3 ± 0.1 h
08-387 GSCs
  phosphorylation of 141 cytoskeleton proteins: no significant changes in phosphorylation
